These results are taken from patent US8389030B2, “Nematicides from Juglandaceae and methods of use thereof” (Redox Chemicals, Inc., priority 2004, dated 2013).

Experiment [1] has as its system nematodes in roots. The experiment can be described thus: Orange grove field trial: reduction of nematodes in plant roots vs plants in untreated soil. In kind it is in vivo. Particulars: clay loam soil, compared to roots of plants in untreated soil, NatureCur applied 3 times 30 days apart at 5000 ppm, the other agents applied once in mid-May. Here is the method: (§1) A field trial was conducted on an orange grove, comparing the effect of the composition described in Example 1 (under its trade name, NatureCur™) against two widely used, commercially available nematicides, an emusifiable concentrate of 1,3 dichloropropene which can be applied to the soil after plants are planted (called a “post-plant” application) (Dow AgroSciences LLC, Indianapolis, Ind.), shown on the accompanying charts as “Cordon,” and imidacloprid, an insecticide marketed under the name Admire® (Bayer CropScience LP, Research Triangle Park, N.C.). For the soil treated with Cordon and the soil treated with Admire®, single applications of the agents were made in mid-May. The product NatureCur™ was applied in once in mid-May, once 30 days later in mid-June, and once again 30 days later in mid July, each time at a concentration of 5000 ppm. The soil in the grove was a clay loam, a very dense, heavy soil in which it is difficult to get agents to travel. Thus, the soil in this grove provided a particularly difficult test condition for NatureCur™, which has to infiltrate through the soil in water.
The percentage of reduction in number of nematodes in roots of plants whose soil was treated with the three agents compared to roots of plants in untreated soil is shown in Table 2 and FIG. 2.

Experiment [2] deals with nematodes in soil. The experiment can be described thus: Orange grove field trial: reduction of nematodes in soil vs untreated soil. Format: in vivo. Particulars: clay loam soil, compared to untreated soil, NatureCur applied 3 times 30 days apart at 5000 ppm, the other agents applied once in mid-May. The method, then: as §1
Samples were taken of the soil around the plants and of the roots. The percentage of reduction in number of nematodes in soil treated with the three agents compared to untreated soil is shown in Table 1 and FIG. 1.

As for `O=[N+]([O-])NC1=NCCN1Cc1ccc(Cl)nc1` [Imidacloprid, imidacloprid], the “Percent reduction in nematodes in roots” value in experiment [1] is 46%. Moreover, in experiment [2], the “Percent reduction in nematodes in soil” value stood at 32%.
On to `ClC=CCCl` [1,3 dichloropropene], for which the “Percent reduction in nematodes in roots” value in experiment [1] came out at 61%. Besides, the “Percent reduction in nematodes in soil” value in experiment [2] was 58%.
